The test system of assay [1] is reperfusion renal injury model. The assay is described as follows: Reperfusion renal injury model (clamping both renal arteries for 60 minutes). It counts as in vivo, rat. Conditions: 24 hours following reperfusion. The method, then:
Two different models of acute renal failure were used: the nephrotoxic acute renal failure model, as described above, and the reperfusion renal injury model, which involved clamping both renal arteries for 60 minutes. (K. J. Kelly, W. W. Williams, R. B. Colvin and J. V. Bonventure, “Intercellular Adhesion Molecule 1 Protects the Kidney Against Ischemic Injury,” Proc. Natl. Acad. Sci. USA, 91:812-816 (1994); and S. Vukicevic, V. Basic, D. Rogic, N. Basic, M. S. Shih, A. Shepard, D. Jin, D. Bosukonda, W. Jones, H. Dorai, S. Ryan, D. Griffiths, J. Maliakal, M. Jelic, M. Pastorcic, A. Stavljenic and K. Sampath, “Osteogenic Protein-1 (Bone Morphogenetic Protein-7) Reduces Severity of Injury After Ischemic Acute Renal Failure in Rat,” J. Clin. Invest.,102:202-214 (1998).)
The animals were dosed with the EP4 agonist just prior to the initiation of the nephrotoxic insult.

For assay [2], the system named is nephrotoxic acute renal failure model. The assay is described as follows: Nephrotoxic acute renal failure model. Format: in vivo, rat. The method, then: The remnant rat kidney (5/6 nephrectomy) model employed was essentially as previously described in the literature (Vukicevic et al., Journal of Bone and Mineral Research, 2:533-545 (1987)). In brief, male rats (4 months old, weighing approximately 400 g) were anesthesized by intraperitoneal administration of ketamin (20 mg/kg) and then subjected to unilateral nephrectomy (left kidney). All animals were subjected to intraperitoneal administration of 1-3 ml of prewarmed saline to compensate for any fluid loss during the surgery. After one week, ⅔ of the remaining kidney was surgically removed. The rats were allowed to recover for one or two weeks prior to the initiation of the therapy for the prevention of the disease.
Blood samples (0.5 ml) were obtained from the orbital plexus and serum creatinine, BUN (blood urea nitrogen), calcium, phosphate and other blood chemistries were monitored throughout the study. Urine was collected on metabolic cages for 24 h. Creatinine was measured by a Jaffe method. A. W. Whelton, A. J. Watson and R. C. Rock: “Nitrogen Metabolites and Renal Function,” in: Clinical Chemistry (Eds: C. A. Burtis and E. R. Ashwood) W. B. Saunders, Philadelphia, Pa., 1513-1575 (1994). BUN was measured by a glutamate dehydrogenase ultraviolet method, phosphorus by a molybdate method, and calcium by an o-cresolphtaleine method. R. A. Lafayette, R. D. Perrone and A. S. Levey: “Laboratory Evaluation of Renal Function,” in: Diseases of the Kidney (Eds: R. W. Schrier and C. W. Gottschalk), Little, Brown and Company, Inc., Vol. 6, 307-354 (1997). The GFR was calculated using […] (24 hr collection) and adjusted to body weights. The cumulative survival rate was also observed and recorded for both the control and the experimental groups. The kidney was subjected to histomorphometric analysis and scored for tissue pathology.
Two different models of acute renal failure were used: the nephrotoxic acute renal failure model, as described above, and the reperfusion renal injury model, which involved clamping both renal arteries for 60 minutes. […]

Another assay concerns the target T1, EP1 receptor (Homo sapiens, UniProt P34995).
T1 construct: These full length receptors are used to prepare 293S cells expressing the EP1, EP2, EP3 and EP4 receptors; expressed in transfected cells; membranes
T1 sequence (P34995 1-402): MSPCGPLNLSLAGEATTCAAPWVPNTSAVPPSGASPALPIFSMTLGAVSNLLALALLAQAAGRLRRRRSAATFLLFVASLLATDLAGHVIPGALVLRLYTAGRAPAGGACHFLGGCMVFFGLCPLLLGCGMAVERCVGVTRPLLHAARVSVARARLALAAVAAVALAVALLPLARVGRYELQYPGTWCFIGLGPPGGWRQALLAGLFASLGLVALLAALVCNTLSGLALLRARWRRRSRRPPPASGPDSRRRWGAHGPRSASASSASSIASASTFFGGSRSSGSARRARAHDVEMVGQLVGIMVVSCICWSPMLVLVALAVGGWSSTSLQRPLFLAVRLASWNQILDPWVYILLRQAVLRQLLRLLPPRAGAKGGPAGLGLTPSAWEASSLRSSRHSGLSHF
The assay is described as follows: Assay for binding to prostaglandin E2 receptors, 3H-PGE2 displacement (EP1). As to conditions: displacement of 3H-prostaglandin E2, membranes of transfected 293S cells; read-out: IC50 at EP1 receptor subtype. The method, then:
(§1) All operations are performed at 4° C. […] The cells are lysed by sonification with a Branson Sonifier (Model #250, Branson Ultrasonics Corporation, Danbury, Conn.) in 2 fifteen second bursts. Unlysed cells and debris are removed by centrifugation at 100×g for 10 min. Membranes are then harvested by centrifugation at 45,000×g for 30 minutes. Pelleted membranes are resuspended to 3-10 mg of protein per ml of Buffer A, the protein concentration being determined by the method of Bradford [M. Bradford, Anal. Biochem., 72, 248 (1976)]. Resuspended membranes are then stored frozen at −80° C. until use.
(§2) Frozen membranes prepared as above are thawed and diluted to 1 mg protein per ml in Buffer A above. One volume of membrane preparation is combined with 0.05 volume test compound or buffer and one volume of 3 nM ^3H-prostaglandin E2 (#TRK 431, Amersham, Arlington Heights, Ill.) in Buffer A. The mixture (205 μL total volume) is incubated for 1 hour at 25° C. The membranes are then recovered by filtration through type GF/C glass fiber filters (#1205-401, Wallac, Gaithersburg, Md.) using a Tomtec harvester (Model Mach 11/96, Tomtec, Orange, Conn.). […] To determine the amount of ^3H-prostaglandin bound to the membranes, the dried filters are placed into plastic bags with scintillation fluid and counted in a LKB 1205 Betaplate reader (Wallac, Gaithersburg, Md.). […]

For the next assay, the target named is T2, EP2 receptor (Homo sapiens, UniProt P43116).
T2 construct: These full length receptors are used to prepare 293S cells expressing the EP1, EP2, EP3 and EP4 receptors; expressed in transfected cells; membranes
T2 sequence (P43116 whole entry): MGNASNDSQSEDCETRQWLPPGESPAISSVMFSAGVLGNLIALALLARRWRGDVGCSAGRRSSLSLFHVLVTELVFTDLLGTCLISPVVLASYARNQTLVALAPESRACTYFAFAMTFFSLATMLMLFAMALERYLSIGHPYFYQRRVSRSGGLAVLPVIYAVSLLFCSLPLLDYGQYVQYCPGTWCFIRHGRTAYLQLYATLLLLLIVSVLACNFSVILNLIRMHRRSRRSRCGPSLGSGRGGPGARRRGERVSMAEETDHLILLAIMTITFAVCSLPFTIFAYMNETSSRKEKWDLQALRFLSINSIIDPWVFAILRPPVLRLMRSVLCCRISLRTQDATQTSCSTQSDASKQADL
In words: Assay for binding to prostaglandin E2 receptors, 3H-PGE2 displacement (EP2). Conditions: displacement of 3H-prostaglandin E2, membranes of transfected 293S cells; read-out: IC50 at EP2 receptor subtype. The method, then: as §1, §2

The target in a further assay is T3, EP3 receptor (Homo sapiens, UniProt P43115).
T3 construct: These full length receptors are used to prepare 293S cells expressing the EP1, EP2, EP3 and EP4 receptors; expressed in transfected cells; membranes
T3 sequence (P43115 1-390): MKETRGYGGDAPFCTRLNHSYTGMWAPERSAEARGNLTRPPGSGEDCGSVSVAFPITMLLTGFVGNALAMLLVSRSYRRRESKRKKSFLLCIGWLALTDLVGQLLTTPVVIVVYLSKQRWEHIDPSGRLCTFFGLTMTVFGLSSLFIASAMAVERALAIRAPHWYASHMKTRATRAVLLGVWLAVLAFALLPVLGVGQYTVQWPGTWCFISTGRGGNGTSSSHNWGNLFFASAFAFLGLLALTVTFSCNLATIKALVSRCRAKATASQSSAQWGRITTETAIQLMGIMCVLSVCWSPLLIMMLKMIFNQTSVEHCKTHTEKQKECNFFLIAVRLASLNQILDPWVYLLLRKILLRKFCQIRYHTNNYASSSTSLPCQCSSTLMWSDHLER
The assay is described as follows: Assay for binding to prostaglandin E2 receptors, 3H-PGE2 displacement (EP3). As to conditions: displacement of 3H-prostaglandin E2, membranes of transfected 293S cells; read-out: IC50 at EP3 receptor subtype. As for the experimental part:
as §1, §2

Another assay deals with T4, EP4 receptor (Homo sapiens, UniProt P35408).
T4 construct: These full length receptors are used to prepare 293S cells expressing the EP1, EP2, EP3 and EP4 receptors; expressed in transfected cells; membranes
T4 sequence (P35408 whole entry): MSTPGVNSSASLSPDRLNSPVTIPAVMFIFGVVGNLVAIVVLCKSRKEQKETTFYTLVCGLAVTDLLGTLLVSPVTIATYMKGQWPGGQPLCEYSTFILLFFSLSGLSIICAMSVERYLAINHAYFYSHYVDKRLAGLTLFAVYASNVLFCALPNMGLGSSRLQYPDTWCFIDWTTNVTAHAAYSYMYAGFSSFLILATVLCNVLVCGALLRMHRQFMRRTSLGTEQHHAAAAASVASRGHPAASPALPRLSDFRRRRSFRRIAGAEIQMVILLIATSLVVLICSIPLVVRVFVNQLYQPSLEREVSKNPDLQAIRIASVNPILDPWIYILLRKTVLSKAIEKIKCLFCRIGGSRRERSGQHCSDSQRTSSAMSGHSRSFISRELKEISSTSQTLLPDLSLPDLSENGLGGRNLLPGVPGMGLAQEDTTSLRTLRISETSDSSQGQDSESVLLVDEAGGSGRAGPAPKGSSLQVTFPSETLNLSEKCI
In words: Assay for binding to prostaglandin E2 receptors, 3H-PGE2 displacement (EP4). As to conditions: displacement of 3H-prostaglandin E2, membranes of transfected 293S cells. The method, then:
as §1, §2

With `O=C(O)CCCCCCN1C(=O)CCC1CCC(O)Cc1ccccc1` (centres unmarked) [7-(2-(3-hydroxy-4-phenyl-butyl)-5-oxo-pyrrolidin-1-yl)-heptanoic acid], the “efficacy in reperfusion renal injury” value in assay [1] is on record as “effective 24 hours following reperfusion”. For the same compound, the “animals survived after seven days” value in assay [2] (dose of 10 mg/kg, control group four out of ten) is “nine out of ten”. The “protection against renal injury, based on serum parameters” value in assay [2] (dosed just prior to the nephrotoxic insult) is on record as “effective in protecting against renal injury”. Moreover, in assay [2] (doses 1 mg/kg and 10 mg/kg, 10 mg/kg better than 1 mg/kg), the “survival time of animals” value is on record as “increased the survival time of animals in a dose dependent manner”. In addition, the IC50 is greater than 3.2 µM on EP1 receptor, greater than 3.2 µM on EP2 receptor, greater than 3.2 µM on EP3 receptor and 0.016 µM on EP4 receptor.

The values above are taken from patent US6610719B2 (Pfizer Inc., priority 2000, dated 2003).
